Columns and labels:
Test in all cases: relative viability (nuclei count vs DMSO), 5 days (fraction); higher = more cells survive
[1] = compound: C[C@@]1(C(=O)Nc2ccc(F)nc2)CCCN1c1nc(Nc2cc(C3CC3)n[nH]2)c2cccn2n1 + CCNC(=O)c1noc(-c2cc(C(C)C)c(O)cc2O)c1-c1ccc(CN2CCOCC2)cc1 [Luminespib] (partner 0.01 µM)
Method in brief: (§1)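 Lung cancer cell lines in 1536-well plates got either a single drug or a fixed anchor-drug dose together with five library-drug doses (not always all listed) in √10 steps, by pin tool, on the day after seeding. Nuclei were counted after 5 days, and relative viability is the treated-to-vehicle ratio of nuclei counts. Values are medians of duplicate plates.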

Motesanib + Phenformin = compound: CC1(C)CNc2cc(NC(=O)c3cccnc3NCc3ccncc3)ccc21 [Motesanib] + N=C(N)NC(=N)NCCc1ccccc1 [Phenformin] (partner 250 µM)
Method in brief: as §1

Motesanib + OSI-027 = compound: CC1(C)CNc2cc(NC(=O)c3cccnc3NCc3ccncc3)ccc21 [Motesanib] + COc1cccc2cc(-c3nc([C@H]4CC[C@H](C(=O)O)CC4)n4ncnc(N)c34)[nH]c12 [OSI-027] (partner 0.5 µM)
Method in brief: as §1

Motesanib + Linsitinib = compound: CC1(C)CNc2cc(NC(=O)c3cccnc3NCc3ccncc3)ccc21 [Motesanib] + C[C@]1(O)C[C@@H](c2nc(-c3ccc4ccc(-c5ccccc5)nc4c3)c3c(N)nccn32)C1 [Linsitinib] (partner 1 µM)
Method in brief: as §1

Cell Line	relative viability ([1]; first compound 0.04 µM)	relative viability ([1]; first compound 0.1265 µM)	relative viability ([1]; first compound 0.4 µM)	relative viability ([1]; first compound 1.265 µM)	relative viability (Motesanib + Phenformin; first compound 0.01 µM)	relative viability (Motesanib + Phenformin; first compound 0.03162 µM)	relative viability (Motesanib + Phenformin; first compound 0.1 µM)	relative viability (Motesanib + Phenformin; first compound 0.3162 µM)	relative viability (Motesanib + Phenformin; first compound 1 µM)	relative viability (Motesanib + OSI-027; first compound 0.01 µM)	relative viability (Motesanib + OSI-027; first compound 0.03162 µM)	relative viability (Motesanib + OSI-027; first compound 0.1 µM)	relative viability (Motesanib + OSI-027; first compound 0.3162 µM)	relative viability (Motesanib + OSI-027; first compound 1 µM)	relative viability (Motesanib + Linsitinib; first compound 0.01 µM)	relative viability (Motesanib + Linsitinib; first compound 0.03162 µM)	relative viability (Motesanib + Linsitinib; first compound 0.1 µM)	relative viability (Motesanib + Linsitinib; first compound 0.3162 µM)	relative viability (Motesanib + Linsitinib; first compound 1 µM)
LU99A	0.244	0.246	0.197	0.181	0.737	0.886	0.819	0.952	0.894	0.287	0.261	0.301	0.307	0.322	0.496	0.565	0.537	0.511	0.594
NCI-H1355	0.669	0.517	0.577	0.696	0.436	0.416	0.49	0.482	0.475	0.411	0.424	0.39	0.414	0.431	0.792	0.75	0.801	0.865	0.834
HCC-78	–	–	–	–	0.605	0.73	0.715	0.822	0.707	0.343	0.348	0.405	0.345	0.297	0.498	0.481	0.541	0.705	0.584
NCI-H1563	0.545	0.506	0.547	0.528	0.617	0.598	0.697	0.715	0.655	0.754	0.799	0.797	0.752	0.704	1.26	1.19	1.21	1.14	1.21
HCC-15	0.481	0.364	0.55	0.417	0.416	0.376	0.497	0.527	0.503	0.693	0.65	0.64	0.817	0.64	0.928	0.801	0.922	0.992	0.926
EKVX	0.804	0.67	0.683	0.935	0.225	0.231	0.242	0.248	0.24	0.684	0.655	0.788	0.732	0.674	0.939	0.98	1.06	1.12	1.07
NCI-H2087	0.122	0.175	0.123	0.145	0.475	0.411	0.575	0.489	0.484	0.427	0.544	0.585	0.705	0.573	0.885	1.03	1.16	0.998	1.1
LK-2	0.159	0.204	0.174	0.169	0.372	0.39	–	0.538	0.549	0.225	0.195	0.168	0.218	0.256	0.426	0.44	0.369	0.623	0.582
NCI-H1437	1.18	1.19	1.01	1.02	0.287	0.282	0.282	0.316	0.305	0.872	0.899	0.903	0.803	0.856	0.972	1.08	1.01	1.01	1.13

Reference: the supplement of paper PMC10307832
